Data taken from US12551532B2, “Long-acting amylin receptor agonists and uses thereof” (Eli Lilly and Company, priority 2021, dated 2026).
Starred links: 1 amine or outer side, 2 acyl side, 3 side chain; linkers in the order of their positions; H or OH if unused. Positions of bridges follow the written chain, without caps; N, C: chain ends. Non-standard residues stand in square brackets, D forms with d. Residues, ends and D or L forms follow the SMILES beside them. Groups on a side chain read outwards from the residue. *: point of attachment. C20 diacid = O=C(O)CCCCCCCCCCCCCCCCCCC(=O)*; γGlu = O=C(O)[C@H](CCC(=O)[*:2])N[*:1]; αMeF = C[C@](N)(Cc1ccccc1)C(=O)O; NMeD = CN[C@@H](CC(=O)O)C(=O)O; NMeN = CN[C@@H](CC(N)=O)C(=O)O; Orn = NCCC[C@H](N)C(=O)O; CH2 = C([*:1])[*:2]

How the values were obtained:
CD4+ T cells = experiment: T cell proliferation assay; conditions: 7-10 donors with diverse MHC
Protocol: This assay assesses the ability of tested antibodies or tested MAPPS peptides to activate CD4+ T cells by inducing cellular proliferation. CD8+ T cell depleted PBMC's are prepared and labeled with CFSE. Each sample is tested with media control, keyhole limpet haemocyanin (KLH; positive clinical benchmark control), tested antibodies, or tested MAPPS peptides. Cultures are incubated for 7 days. On day 7, samples are analyzed by flow cytometry.

[1] = Pharmacokinetics in male cynomolgus monkeys; type: in vivo; conditions: single SC 20 nmol/kg, mean; for Tmax / CL/F / half-life: male, cynomolgus monkey, plasma; for Tmax / AUCINF/D / Cmax/D / CL/F: n = 3; for half-life: n = 3, read-out: T½ (converted)
Protocol: The pharmacokinetics of Compound II (SEQ ID NO:2), Compound IV (SEQ ID NO:4), Compound VI (SEQ ID NO:6), and Compound VIII (SEQ ID NO:8) are evaluated following a single subcutaneous administration of 20 nmol/kg to male cynomolgus monkeys. Blood samples are collected at 1, 3, 6, 12, 24, 48, 72, 120, 168, 240, 336, 408, 504 hours post SC dose. The resulting individual plasma concentrations are used to calculate pharmacokinetic parameters. Peptide plasma (K3EDTA) concentrations are determined using a qualified LC/MS method that measured the intact mass of the peptides. Each peptide and an analog as an internal standard are extracted from plasma. A high resolution Thermo Q-Exactive is used for LC/MS detection.

[2] = molecular target: T1, human calcitonin receptor (hCTR) (Homo sapiens, UniProt P30988); experiment: hCTR competitive radioligand binding filter assay (125I-hCT); conditions: ± SE; membranes of hCTR overexpressing cells
T1 construct: expressed in transfected cells; host or cells: membranes of UM-UC-3 (UMUC3) cells stably expressing human CTa
T1 sequence (P30988 25-474): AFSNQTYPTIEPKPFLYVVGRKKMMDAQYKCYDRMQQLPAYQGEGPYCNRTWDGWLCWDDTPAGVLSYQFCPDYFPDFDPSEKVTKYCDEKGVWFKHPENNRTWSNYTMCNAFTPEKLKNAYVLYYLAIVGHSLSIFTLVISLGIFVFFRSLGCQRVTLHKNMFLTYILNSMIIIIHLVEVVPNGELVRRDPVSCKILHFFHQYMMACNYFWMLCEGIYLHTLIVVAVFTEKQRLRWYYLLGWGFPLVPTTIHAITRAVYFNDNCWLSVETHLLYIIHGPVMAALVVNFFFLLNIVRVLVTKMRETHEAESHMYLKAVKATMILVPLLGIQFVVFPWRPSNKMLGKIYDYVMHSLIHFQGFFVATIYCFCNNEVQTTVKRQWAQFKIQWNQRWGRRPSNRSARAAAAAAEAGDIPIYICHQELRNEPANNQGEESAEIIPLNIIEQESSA
Protocol: (§1) The equilibrium dissociation constants (Kd) for the various receptor/radioligand interactions are determined from saturation binding analysis using the same reagents and buffers as described below for compound testing.
The receptor binding affinity (Ki) of rAMY, hCT, and hAMY agonist peptides on hCTR membranes is determined from a competitive radioligand binding filter assay.

human CT receptors = molecular target: T2, human CT receptors (Homo sapiens, UniProt P30988); experiment: hCTR cAMP functional activity (HTRF); type: cell-based; conditions: ±SE; UMUC3 cells overexpressing hCTR; relative EC50
T2 construct: expressed in transfected cells
T2 sequence (P30988 25-474): T1 sequence (P30988 25-474)
Protocol: The AMY1 and CT receptors are GPCRs that are functionally coupled to Gas proteins. […] In vitro activity of peptides is measured by the amount of cAMP formed in human AMY1R and CTR overexpressed cells.
Human CT receptors are stably expressed in human urinary bladder cells (UM-UC-3, or UMUC3) under control of a pcDNA expression vector. […] After 20 days under selection, the mRNA levels from different clones are measured to confirm the expression of hCTR. To determine the function of over-expressed hCTR cells, the intracellular cAMP levels in response to salmon calcitonin are measured and compared to the expression of hCTR mRNA in each clone.
hAMY1R cells are cultured in MEM 1× (Corning) supplemented with 10% FBS, 1% antibiotic/antimycotic solution, 1 mM sodium pyruvate, 1×MEM NEAA, 1× GlutaMAX-I, 200 μg/mL hygromycin B, and 0.4 μg/mL puromycin. The hCTR cells are cultured in the same medium lacking the puromycin. Cultured cells are grown to 70% confluency and then incubated overnight with fresh medium.
Peptides diluted in DMSO are added (200 nL/well) in a 1:3 dilution series using ECHO acoustic liquid handler (Beckman). Cultured cells are detached with TrypLE Express (Gibco), resuspended in assay buffer, and 10 μL containing 1200 cells/well (hCTR) or 1500 cells/well (hAMY1R) are dispensed into each well. The plates are incubated at room temperature for 1 hour.
The amount of intracellular cAMP is quantitated using HTRF technology (Homogeneous Time Resolved Fluorescence; Cisbio) as per vendor instructions. Briefly, 10 μL cAMP-d2 conjugate and 10 μL anti-cAMP-cryptate conjugate in lysis buffer are incubated with the treated cells at room temperature for 60 min. […] The raw data are converted to cAMP amount (pmol/well) using a cAMP standard curve generated for each experiment.

hAMY1R = molecular target: T3, hAMY1R (Homo sapiens, UniProt O60894+P30988); experiment: hAMY1R competitive radioligand binding filter assay (125I-rAMY); conditions: ± SE; membranes of hAMY1R overexpressing cells
T3 construct: expressed in transfected cells
T3 sequence (O60894 27-148 partner, one chain of several): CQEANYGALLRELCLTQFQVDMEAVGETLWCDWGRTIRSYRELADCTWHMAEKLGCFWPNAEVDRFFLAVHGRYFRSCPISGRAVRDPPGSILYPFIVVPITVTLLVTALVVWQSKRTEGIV
Protocol: as §1
The receptor binding affinity (Ki) of rAMY, hCT, and hAMY agonist peptides are determined from a competitive radioligand binding filter assay. The assay buffer consists of (in mM) 50 HEPES, pH 7.1, 5 MgCl2, 5 KCl, 0.2% (w/v) bacitracin, 0.003% (w/v) saponin and is used to dilute radioligand and membrane preparation. Binding reactions are carried out in 0.1 mL total reaction volume in a polystyrene 96 deep-well assay block. […] Test compounds and non-specific binding (NSB—defined as 300 nM rAMY) are added to aliquots of radioactivity buffer. […] The binding reaction is initiated by the addition of 0.05 mL of 200 μg/mL hAMY1R diluted in assay buffer to the radioactivity. Assay blocks are gently vortexed, sealed with parafilm, and incubated at RT for approximately 20 hours. […] At the end of the incubation, bound ligand is separated from free by addition of an ice cold quench buffer consisting of 100 mM NaCl, 50 mM TRIS-HCl pH 7.1 and immediately collected over the filter mat by vacuum filtration with a TomTec 96 well filter harvester using the following filter protocol (Dry time, 7; Cycle 3 repeat, 0; Wash Time, 1; Soak Time, 1; 1st Aspirate Time, 4; Wash/Aspirate Time, 7; 2nd Aspirate, 4; air pressure 2 PSI).

Row | Tmax [1] [h] | AUCINF/D [1] [hr * kg * nmol/L/nmol] | Cmax/D [1] [kg * nmol/L/nmol] | Ki [2] [nM] | EC50 (human CT receptors) [nM] | Ki (hAMY1R) [nM] | CL/F [1] [mL/day/kg] | half-life [1] [h] | Structure (SMILES) | T Cell Proliferation Assay: protein, immunogenicity risk (CD4+ T cells) | T Cell Proliferation Assay: protein, positive donors (CD4+ T cells)
1 | 64 ± 13.9 | 1752 ± 313 | 6.7 ± 1.0 | 202 ± 45 | 2.34 ± 0.272 | 0.017 ± 0.006 | – | – | CC(C)C[C@H](NC(=O)[C@H](CCCN)NC(=O)CNC(=O)[C@@H](NC(=O)[C@H](C)NC(=O)[C@@H]1CSCSC[C@H](NC(=O)CC[C@H](N)C(=O)O)C(=O)N[C@@H](CC(N)=O)C(=O)N[C@@H]([C@@H](C)O)C(=O)N[C@@H](C)C(=O)N[C@@H]([C@@H](C)O)C(=O)N1)[C@@H](C)O)C(=O)N[C@@H](C)C(=O)N[C@@H](CCC(=O)O)C(=O)N[C@@](C)(Cc1ccccc1)C(=O)N[C@@H](CC(C)C)C(=O)N[C@H](C(=O)N[C@@H](CCCNC(=N)N)C(=O)N[C@@H](CO)C(=O)N[C@@H](CO)C(=O)N[C@@H](CC(N)=O)C(=O)N(C)[C@@H](CC(N)=O)C(=O)N[C@@H](Cc1ccccc1)C(=O)NCC(=O)N1CCC[C@H]1C(=O)N[C@@H](CCCCNC(=O)CC[C@H](NC(=O)CC[C@H](NC(=O)CCCCCCCCCCCCCCCCCCC(=O)O)C(=O)O)C(=O)O)C(=O)N[C@@H](CC(C)C)C(=O)N1CCC[C@H]1C(=O)N1CCC[C@H]1C(=O)N[C@H](C(=O)N[C@@H](CCC(=O)O)C(=O)N[C@H](C(=O)NCC(=O)N[C@@H](CO)C(=O)N[C@@H](CC(N)=O)C(=O)N[C@H](C(=O)N[C@@H](Cc1ccc(O)cc1)C(N)=O)[C@@H](C)O)C(C)C)[C@@H](C)O)C(C)C [Compound II] (γGlu-CNTATCATG[Orn]LAE[αMeF]LVRSSN[NMeN]FGPK([γGlu-γGlu-C20 diacid])LPPTEVGSNTY-NH2; linker 1-6 via CH2) | Low Risk | (0/9
2 | 48 ± 24 | 1607 ± 104 | 6.2 ± 1.0 | 665 ± 113 | 6.14 ± 0.764 | 0.0296 ± 0.0099 | 14.9 | 177 ± 13.5 | CC(C)C[C@H](NC(=O)[C@H](CCCN)NC(=O)CNC(=O)[C@@H](NC(=O)[C@H](C)NC(=O)[C@@H]1CSCSC[C@H](NC(=O)CC[C@H](N)C(=O)O)C(=O)N[C@@H](CC(N)=O)C(=O)N[C@@H]([C@@H](C)O)C(=O)N[C@@H](C)C(=O)N[C@@H]([C@@H](C)O)C(=O)N1)[C@@H](C)O)C(=O)N[C@@H](C)C(=O)N[C@@H](CCC(=O)O)C(=O)N[C@@](C)(Cc1ccccc1)C(=O)N[C@@H](CC(C)C)C(=O)N[C@H](C(=O)N[C@@H](CCCNC(=N)N)C(=O)N[C@@H](CO)C(=O)N[C@@H](CO)C(=O)N[C@@H](CC(N)=O)C(=O)N(C)[C@@H](CC(=O)O)C(=O)N[C@@H](Cc1ccccc1)C(=O)NCC(=O)N1CCC[C@H]1C(=O)N[C@@H](CCCCNC(=O)CC[C@H](NC(=O)CC[C@H](NC(=O)CCCCCCCCCCCCCCCCCCC(=O)O)C(=O)O)C(=O)O)C(=O)N[C@@H](CC(C)C)C(=O)N1CCC[C@H]1C(=O)N1CCC[C@H]1C(=O)N[C@H](C(=O)N[C@@H](CCC(=O)O)C(=O)N[C@H](C(=O)NCC(=O)N[C@@H](CO)C(=O)N[C@@H](CC(N)=O)C(=O)N[C@H](C(=O)N[C@@H](Cc1ccc(O)cc1)C(N)=O)[C@@H](C)O)C(C)C)[C@@H](C)O)C(C)C [Compound IV, γE-CNTATCATG-Orn-LAE-αMeF-LVRSSN-NMeD-FGPKLPPTEVGSNTY-NH2] (γGlu-CNTATCATG[Orn]LAE[αMeF]LVRSSN[NMeD]FGPK([γGlu-γGlu-C20 diacid])LPPTEVGSNTY-NH2; linker 1-6 via CH2) | Low Risk | (0/9
3 | 40 ± 13.9 | 794 ± 27 | 4.9 ± 0.7 | 235 ± 45 | 13.2 ± 2.23 | 0.0445 ± 0.0082 | 30.2 | 85 ± 5.8 | CC[C@H](C)[C@H](NC(=O)[C@@H]1CCCN1C(=O)CNC(=O)[C@H](Cc1ccccc1)NC(=O)[C@H](CC(=O)O)N(C)C(=O)[C@H](CC(N)=O)NC(=O)[C@H](CO)NC(=O)[C@H](CO)NC(=O)[C@H](CCCNC(=N)N)NC(=O)[C@@H](NC(=O)[C@H](CC(C)C)NC(=O)[C@](C)(Cc1ccccc1)NC(=O)[C@H](CCC(=O)O)NC(=O)[C@H](C)NC(=O)[C@H](CC(C)C)NC(=O)[C@H](CCCN)NC(=O)CNC(=O)[C@@H](NC(=O)[C@H](C)NC(=O)[C@@H]1CSCSC[C@H](NC(=O)[C@@H](N)CCCCNC(=O)CC[C@H](NC(=O)CC[C@H](NC(=O)CCCCCCCCCCCCCCCCCCC(=O)O)C(=O)O)C(=O)O)C(=O)N[C@@H](CCC(=O)O)C(=O)N[C@@H]([C@@H](C)O)C(=O)N[C@@H](C)C(=O)N[C@@H]([C@@H](C)O)C(=O)N1)[C@@H](C)O)C(C)C)C(=O)N[C@@H](CC(C)C)C(=O)N1CCC[C@H]1C(=O)N1CCC[C@H]1C(=O)N[C@H](C(=O)N[C@@H](CCC(=O)O)C(=O)N[C@H](C(=O)NCC(=O)N[C@@H](CO)C(=O)N[C@@H](CC(N)=O)C(=O)N[C@H](C(=O)N[C@@H](Cc1ccc(O)cc1)C(N)=O)[C@@H](C)O)C(C)C)[C@@H](C)O [Compound VI, KCETATCATG-Orn-LAE-αMeF-LVRSSN-NMeD-FGPILPPTEVGSNTY-NH2] (H-K([γGlu-γGlu-C20 diacid])CETATCATG[Orn]LAE[αMeF]LVRSSN[NMeD]FGPILPPTEVGSNTY-NH2; linker 2-7 via CH2) | Low Risk | (1/9
